{"source": "ChEMBL document CHEMBL1201862", "about": "“PubChem BioAssay data set” (2004)", "experiment_in_all_cases": "NCI tumour cell line growth inhibition, 48 h", "key": {"RXF 393": {"tested_on": "RXF 393"}, "LXFL 529": {"tested_on": "LXFL 529"}, "SK-MEL-2": {"tested_on": "SK-MEL-2"}, "MOLT-4": {"tested_on": "MOLT-4"}, "IGROV-1": {"tested_on": "IGROV-1"}, "NCI-H23": {"tested_on": "NCI-H23"}, "DMS-114": {"tested_on": "DMS-114"}, "SNB-78": {"tested_on": "SNB-78"}, "KM12": {"tested_on": "KM12"}, "HCT-116": {"tested_on": "HCT-116"}, "HOP-18": {"tested_on": "HOP-18"}, "CAKI-1": {"tested_on": "CAKI-1"}, "U-251": {"tested_on": "U-251"}, "HL-60": {"tested_on": "HL-60"}, "OVCAR-4": {"tested_on": "OVCAR-4"}, "NCI-H460": {"tested_on": "NCI-H460"}, "HT-29": {"tested_on": "HT-29"}, "HOP-62": {"tested_on": "HOP-62"}, "SK-MEL-28": {"tested_on": "SK-MEL-28"}, "HCT-15": {"tested_on": "HCT-15"}, "OVCAR-8": {"tested_on": "OVCAR-8"}, "UACC-257": {"tested_on": "UACC-257"}, "SF-268": {"tested_on": "SF-268"}, "K562": {"tested_on": "K562"}, "OVCAR-5": {"tested_on": "OVCAR-5"}, "SR": {"tested_on": "SR"}, "SK-OV-3": {"tested_on": "SK-OV-3"}, "SN12C": {"tested_on": "SN12C"}, "A498": {"tested_on": "A498"}, "ACHN": {"tested_on": "ACHN"}, "NCI-H226": {"tested_on": "NCI-H226"}, "786-0": {"tested_on": "786-0"}, "HCC 2998": {"tested_on": "HCC 2998"}, "RPMI-8226": {"tested_on": "RPMI-8226"}, "A549": {"tested_on": "A549"}, "M14": {"tested_on": "M14"}, "DMS-273": {"tested_on": "DMS-273"}, "SW-620": {"tested_on": "SW-620"}, "UO-31": {"tested_on": "UO-31"}, "CCRF-CEM": {"tested_on": "CCRF-CEM"}, "KM-20L2": {"tested_on": "KM-20L2"}, "OVCAR-3": {"tested_on": "OVCAR-3"}, "SK-MEL-5": {"tested_on": "SK-MEL-5"}, "Malme-3M": {"tested_on": "Malme-3M"}, "NCI-H522": {"tested_on": "NCI-H522"}, "SF-295": {"tested_on": "SF-295"}, "DLD-1": {"tested_on": "DLD-1"}, "COLO 205": {"tested_on": "COLO 205"}, "SF-539": {"tested_on": "SF-539"}, "UACC-62": {"tested_on": "UACC-62"}, "SNB-19": {"tested_on": "SNB-19"}, "LOX IMVI": {"tested_on": "LOX IMVI"}, "SNB-75": {"tested_on": "SNB-75"}}, "note": "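Briefly, cells in 96-well plates were exposed to five compound concentrations for 48 h, and endpoints were estimated by linear interpolation. GI50: concentration for 50% inhibition of growth.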 Activity calls are given as the source filed them. Rule as the data show it: active = GI50 up to about 1.1 µM and inactive = higher."}
{"smiles": "Cc1cc(N(CCC#N)S(C)(=O)=O)ccc1C=O", "values": [{"measurement": "GI50", "setting": "RXF 393", "result": "> 100 µM (inactive)"}, {"measurement": "GI50", "setting": "LXFL 529", "result": "> 100 µM (inactive)"}, {"measurement": "GI50", "setting": "SK-MEL-2", "result": "> 100 µM (inactive)"}, {"measurement": "GI50", "setting": "MOLT-4", "result": "> 100 µM (inactive)"}, {"measurement": "GI50", "setting": "IGROV-1", "result": "> 100 µM (inactive)"}, {"measurement": "GI50", "setting": "NCI-H23", "result": "> 100 µM (inactive)"}, {"measurement": "GI50", "setting": "DMS-114", "result": "> 100 µM (inactive)"}, {"measurement": "GI50", "setting": "SNB-78", "result": "> 100 µM (inactive)"}, {"measurement": "GI50", "setting": "KM12", "result": "> 100 µM (inactive)"}, {"measurement": "GI50", "setting": "HCT-116", "result": "> 100 µM (inactive)"}, {"measurement": "GI50", "setting": "HOP-18", "result": "> 100 µM (inactive)"}, {"measurement": "GI50", "setting": "CAKI-1", "result": "> 100 µM (inactive)"}, {"measurement": "GI50", "setting": "U-251", "result": "> 100 µM (inactive)"}, {"measurement": "GI50", "setting": "HL-60", "result": "> 100 µM (inactive)"}, {"measurement": "GI50", "setting": "OVCAR-4", "result": "> 100 µM (inactive)"}, {"measurement": "GI50", "setting": "NCI-H460", "result": "> 100 µM (inactive)"}, {"measurement": "GI50", "setting": "HT-29", "result": "> 100 µM (inactive)"}, {"measurement": "GI50", "setting": "HOP-62", "result": "> 100 µM (inactive)"}, {"measurement": "GI50", "setting": "SK-MEL-28", "result": "> 100 µM (inactive)"}, {"measurement": "GI50", "setting": "HCT-15", "result": "> 100", "unit": "µM"}, {"measurement": "GI50", "setting": "OVCAR-8", "result": "> 100 µM (inactive)"}, {"measurement": "GI50", "setting": "UACC-257", "result": "> 100 µM (inactive)"}, {"measurement": "GI50", "setting": "SF-268", "result": "> 100 µM (inactive)"}, {"measurement": "GI50", "setting": "K562", "result": "> 100 µM (inactive)"}, {"measurement": "GI50", "setting": "OVCAR-5", "result": "> 100 µM (inactive)"}, {"measurement": "GI50", "setting": "SR", "result": "> 100 µM (inactive)"}, {"measurement": "GI50", "setting": "SK-OV-3", "result": "> 100 µM (inactive)"}, {"measurement": "GI50", "setting": "SN12C", "result": "> 100 µM (inactive)"}, {"measurement": "GI50", "setting": "A498", "result": "> 100 µM (inactive)"}, {"measurement": "GI50", "setting": "ACHN", "result": "> 100 µM (inactive)"}, {"measurement": "GI50", "setting": "NCI-H226", "result": "> 100 µM (inactive)"}, {"measurement": "GI50", "setting": "786-0", "result": "> 100 µM (inactive)"}, {"measurement": "GI50", "setting": "HCC 2998", "result": "> 100 µM (inactive)"}, {"measurement": "GI50", "setting": "RPMI-8226", "result": "> 100 µM (inactive)"}, {"measurement": "GI50", "setting": "A549", "result": "> 100 µM (inactive)"}, {"measurement": "GI50", "setting": "M14", "result": "> 100 µM (inactive)"}, {"measurement": "GI50", "setting": "DMS-273", "result": "> 100 µM (inactive)"}, {"measurement": "GI50", "setting": "SW-620", "result": "> 100 µM (inactive)"}, {"measurement": "GI50", "setting": "UO-31", "result": "> 100 µM (inactive)"}, {"measurement": "GI50", "setting": "CCRF-CEM", "result": "> 100 µM (inactive)"}, {"measurement": "GI50", "setting": "KM-20L2", "result": "> 100 µM (inactive)"}, {"measurement": "GI50", "setting": "OVCAR-3", "result": "> 100 µM (inactive)"}, {"measurement": "GI50", "setting": "SK-MEL-5", "result": "> 100 µM (inactive)"}, {"measurement": "GI50", "setting": "Malme-3M", "result": "> 100 µM (inactive)"}, {"measurement": "GI50", "setting": "NCI-H522", "result": "> 100 µM (inactive)"}, {"measurement": "GI50", "setting": "SF-295", "result": "> 100 µM (inactive)"}, {"measurement": "GI50", "setting": "DLD-1", "result": "> 100 µM (inactive)"}, {"measurement": "GI50", "setting": "COLO 205", "result": "> 100 µM (inactive)"}, {"measurement": "GI50", "setting": "SF-539", "result": "> 100 µM (inactive)"}, {"measurement": "GI50", "setting": "UACC-62", "result": "> 100 µM (inactive)"}, {"measurement": "GI50", "setting": "SNB-19", "result": "> 100 µM (inactive)"}, {"measurement": "GI50", "setting": "LOX IMVI", "result": "> 100 µM (inactive)"}, {"measurement": "GI50", "setting": "SNB-75", "result": "> 100 µM (inactive)"}]}
